# Laboratory results as given in paper PMC5458211, “Mitochondrial VDAC1-based peptides: Attacking oncogenic properties in glioblastoma” (Oncotarget, 2017).
# Non-standard residues stand in square brackets, D forms with d. Residues, ends and D or L forms follow the SMILES beside them.
# How the values were obtained:
# [1] = test system: primary brain cells (PBCs); test: Cell death by PI staining and flow cytometry, primary brain cells; type: cell-based; settings: mouse PBCs, 6 h at 37°C, serum-free medium, PI staining; Fig 1I-1K
# Source text: Figure 1 VDAC1-based peptides induce dramatic cell death of several brain tumor-derived cell lines but to lesser extent in primary brain cells A. IHC staining of VDAC1 of human normal brain (n=13) or glioblastoma (n=41) in tissue array slides (Biomax), as described in Materials and methods available online in Supplemental information. Percentages of sections stained at the intensity indicated are shown. […] The VDAC1-derived sequences Δ(1-14)N-terminus and LP4 are in green and pink, respectively. The cell-penetrating peptides Antp and Tf are in orange and blue, respectively. The loop shape of LP4 stabilized by a tryptophan zipper is in purple. The amino acids of Δ(1-14)N-terminus, LP4 and Antp are in the D configuration. The sequences of D-LP4 and Retro-D-LP4 are presented below. C. Immunoblot analysis of VDAC1, HK-I, Bcl-2 and Transferrin receptor (TfR) expression in brain tumor-derived cell lines using specific antibodies, as described in Materials and methods available online in Supplemental information. […] Cells were harvested, washed twice with PBS and cell death was analyzed by propidium iodide (PI) staining and flow cytometry. H. IC50 values (μM) for pepdide inducing cell death as derived from D-G. The results shown correspond to means ± SD (n=3). […] Cells were harvested, washed twice with PBS and cell death was analyzed by PI staining and flow cytometry. […]
# (§1) Cells (6×10^5 /ml) were incubated in 500 μl serum-free medium with the peptide of interest for 6 h at 37°C in the presence of 5% CO2. The cells were then trypsinized, centrifuged (1500xg, 5 min), washed with PBS and analyzed for cell death using propidium iodide (PI) staining and flow cytometer (Beckton-Dickinson, San Jose, CA) and BD CellQuest Pro software. Apoptotic cell death was also analyzed by PI and annexin V-FITC staining, and by acridine orange and ethidium bromide staining and light microscopy (Olympus LX2-KSP).
# U-87MG cells = test: Apoptosis by acridine orange/ethidium bromide staining, U-87MG; type: cell-based, human; settings: 3 h, mean ± SE (n=3), DMSO control 9.8 ± 5.3
# Method: Figure 2 Mode of action of VDAC1-based peptides – interacting with- and detaching HK, releasing Cyto c, decreasing ATP level and inducing apoptosis A. Purified HK-II was fluorescently labeled using the NanoTemper protein-labeling Kit BLUE. […] Then, 3-5 μl of the samples were loaded into MST-grade glass capillaries and thermophoresis was measured using a Monolith-NT115 apparatus, as described in Materials and methods available online in Supplemental information. […] The final DMSO concentration in control and peptide-treated cells was 0.07%. Fixed cells were visualized using confocal microscopy (Olympus 1×81), as described in Materials and Methods available online in Supplemental information. Arrows indicate cells with diffusion of HK-I-GFP. C. […] Anti-GAPDH antibodies were used to verify the cytosolic extracts. The levels of HK in the supernatants were quantified and are presented as relative units. D. D-ΔN-Ter-Antp induces mitochondrial inner membrane depolarization analyzed as described in Materials and Methods available online in Supplemental information. U-87MG cells were incubated for 3 h with the indicated concentrations of D-ΔN-Ter-Antp or with FCCP (1 h, 25 μM). Cells then were analyzed for Δψ using TMRM. Δψ is presented as percentage of control. Results = mean ± SE (n=3) (*** p≤0.001, ****p ≤0.0001). […] Cellular ATP levels are presented as percentage of control. Results = mean ± SE (n=2 or 3) (* p≤0.05, ** p≤0.01). […] Release of Cyto c from the mitochondria was analyzed by immunostaining using anti-Cyto c antibodies and confocal microscopy (Olympus 1×81) as described in Materials and Methods available online in Supplemental information. Arrows indicate cells showing diffusion of Cyto c. […] Arrows and arrowheads indicate cells with membrane blebbing (early apoptotic state) and late apoptotic states, respectively. Quantification of apoptosis in control and peptide's treated cells are presented bellow the images. Results = mean ± SE (n=3) (** p≤0.01, *** p≤0.001, **** p≤0.0001).
# as §1
structure (smiles),measurement,setting,value
CC[C@H](C)[C@H](NC(=O)[C@H](C)NC(=O)[C@@H](N)Cc1c[nH]cn1)C(=O)N[C@@H](Cc1ccc(O)cc1)C(=O)N1CCC[C@H]1C(=O)N[C@@H](CCCNC(=N)N)C(=O)N[C@@H](Cc1c[nH]cn1)C(=O)N[C@@H](CO)C(=O)N[C@@H](Cc1c[nH]c2ccccc12)C(=O)N[C@H](C(=O)N[C@@H](Cc1c[nH]c2ccccc12)C(=O)N[C@@H](CCC(=O)O)C(=O)N[C@H](CCCCN)C(=O)N[C@H](CCCCN)C(=O)N[C@H](CC(C)C)C(=O)N[C@H](CCC(=O)O)C(=O)N[C@@H](C(=O)N[C@H](C)C(=O)N[C@@H](C(=O)N[C@H](CC(N)=O)C(=O)N[C@H](CC(C)C)C(=O)N[C@H](C)C(=O)N[C@H](Cc1c[nH]c2ccccc12)C(=O)N[C@@H](C(=O)N[C@H](C)C(=O)NCC(=O)N[C@H](CC(N)=O)C(=O)N[C@H](CO)C(=O)N[C@H](CC(N)=O)C(=O)N[C@@H](CCCCN)C(=O)N[C@@H](Cc1c[nH]c2ccccc12)C(=O)N[C@H](C(=O)N[C@@H](Cc1c[nH]c2ccccc12)C(=O)N[C@@H](CCCCN)C(=O)O)[C@@H](C)O)[C@H](C)O)C(C)C)[C@H](C)O)[C@@H](C)O [Tf-D-LP4],cell death in primary brain cells as compared to U-87MG cells,[1],lesser extent
same,"Apoptosis, %",U-87MG cells; 3 μM,55.8 ± 1.0%
same,"Apoptosis, %",U-87MG cells; 5 μM,73.9 ± 5.7%
CC[C@@H](C)[C@@H](NC(=O)[C@@H](CCCCN)NC(=O)[C@H](NC(=O)[C@@H](CCC(N)=O)NC(=O)[C@@H](CCCNC(=N)N)NC(=O)[C@@H](CC(C)C)NC(=O)CNC(=O)[C@@H](Cc1ccccc1)NC(=O)CNC(=O)[C@@H](Cc1ccc(O)cc1)NC(=O)CNC(=O)[C@@H](CCCCN)NC(=O)[C@H](NC(=O)[C@@H](Cc1ccccc1)NC(=O)[C@H](NC(=O)[C@@H](CC(=O)O)NC(=O)[C@H](N)CCCNC(=N)N)C(C)C)[C@H](C)O)[C@H](C)CC)C(=O)N[C@H](Cc1c[nH]c2ccccc12)C(=O)N[C@H](Cc1ccccc1)C(=O)N[C@H](CCC(N)=O)C(=O)N[C@H](CC(N)=O)C(=O)N[C@H](CCCNC(=N)N)C(=O)N[C@H](CCCNC(=N)N)C(=O)N[C@H](CCSC)C(=O)N[C@H](CCCCN)C(=O)N[C@H](Cc1c[nH]c2ccccc12)C(=O)N[C@H](CCCCN)C(=O)N[C@H](CCCCN)C(=O)O [D-ΔN-Ter-Antp] (H-[dR][dD][dV][dF][dT][dK]G[dY]G[dF]G[dL][dR][dQ][dI][dK][dI][dW][dF][dQ][dN][dR][dR][dM][dK][dW][dK][dK]-OH; N-terminus and C-terminus assumed),cell death in primary brain cells as compared to U-87MG cells,[1],lesser extent
same,"Apoptosis, %",U-87MG cells; 3 μM,45.4 ± 2.6%
same,"Apoptosis, %",U-87MG cells; 5 μM,63.4 ± 3.8%
CC[C@H](C)[C@H](NC(=O)[C@H](Cc1ccc(O)cc1)NC(=O)[C@@H]1CCCN1C(=O)[C@H](CCCNC(=N)N)NC(=O)[C@H](Cc1c[nH]cn1)NC(=O)[C@H](CO)NC(=O)[C@H](Cc1c[nH]c2ccccc12)NC(=O)[C@@H](NC(=O)[C@H](Cc1c[nH]c2ccccc12)NC(=O)[C@H](CCC(=O)O)NC(=O)[C@@H](CCCCN)NC(=O)[C@@H](CCCCN)NC(=O)[C@@H](CC(C)C)NC(=O)[C@@H](CCC(=O)O)NC(=O)[C@H](NC(=O)[C@@H](C)NC(=O)[C@H](NC(=O)[C@@H](CC(N)=O)NC(=O)[C@@H](CC(C)C)NC(=O)[C@@H](C)NC(=O)[C@@H](Cc1c[nH]c2ccccc12)NC(=O)[C@H](NC(=O)[C@@H](C)NC(=O)CNC(=O)[C@@H](CC(N)=O)NC(=O)[C@@H](CO)NC(=O)[C@@H](CC(N)=O)NC(=O)[C@H](CCCCN)NC(=O)[C@H](Cc1c[nH]c2ccccc12)NC(=O)[C@@H](NC(=O)[C@H](Cc1c[nH]c2ccccc12)NC(=O)[C@@H](N)CCCCN)[C@@H](C)O)[C@H](C)O)C(C)C)[C@H](C)O)[C@@H](C)O)C(=O)N[C@@H](C)C(=O)N[C@@H](Cc1c[nH]cn1)C(=O)O [Retro-Tf-D-LP4],cell death in primary brain cells as compared to U-87MG cells,[1],lesser extent
